ChEMBL document CHEMBL3886469, “Pyrrolo pyrimidine derivatives” (2016)

Assays:
[1] = target: T1, Tyrosine-protein kinase BTK (Homo sapiens, UniProt Q06187); assay: Biochemical Enzyme Assay: The inhibitory activity of the present compounds against Btk was assessed in a biochemical enzyme assay. Assay plates in 384 well format were prepared with 8-point serial dilutions for the test compounds on a Thermo CatX workstation equipped with a Innovadyne Nanodrop Express. The assay plates were prepared by addition of 50 nl per well of compound solution in 90% DMSO. The kinase reactions were started by stepwise addition of 4.5 ul per well of peptide/ATP-solution (4 uM FITC-Ahx-[…]-NH2, 164 uM ATP) in kinase buffer (50 mM HEPES, pH 7.5, 1 mM DTT, 0.02% Tween20, 0.02% BSA, 0.6% DMSO, 10 mM beta-glycerophosphate, and 10 uM sodium orthovanadate, 18 mM MgCl2, 1 mM MnCl2) and 4.5 ul per well of enzyme solution (6.4 nM full-length human recombinant BTK) in kinase buffer. Kinase reactions were incubated at 30° C. for 60 minutes and subsequently terminated by addition of 16 ul per well of stop solution (100 mM HEPES pH 7.5, 5% DMSO, 0.1% Caliper coating reagent, 10 mM EDTA, and 0.015% Brij35). Kinase reactions were analyzed on a Caliper LC3000 workstation by separating phosphorylated and unphosphorylated peptides and kinase activities were calculated from the amounts of newly formed phospho-peptide. Inhibition data were calculated by comparison to control reactions without enzyme (100% inhibition) and without inhibitors (0% inhibition).
T1 sequence (Q06187 whole entry): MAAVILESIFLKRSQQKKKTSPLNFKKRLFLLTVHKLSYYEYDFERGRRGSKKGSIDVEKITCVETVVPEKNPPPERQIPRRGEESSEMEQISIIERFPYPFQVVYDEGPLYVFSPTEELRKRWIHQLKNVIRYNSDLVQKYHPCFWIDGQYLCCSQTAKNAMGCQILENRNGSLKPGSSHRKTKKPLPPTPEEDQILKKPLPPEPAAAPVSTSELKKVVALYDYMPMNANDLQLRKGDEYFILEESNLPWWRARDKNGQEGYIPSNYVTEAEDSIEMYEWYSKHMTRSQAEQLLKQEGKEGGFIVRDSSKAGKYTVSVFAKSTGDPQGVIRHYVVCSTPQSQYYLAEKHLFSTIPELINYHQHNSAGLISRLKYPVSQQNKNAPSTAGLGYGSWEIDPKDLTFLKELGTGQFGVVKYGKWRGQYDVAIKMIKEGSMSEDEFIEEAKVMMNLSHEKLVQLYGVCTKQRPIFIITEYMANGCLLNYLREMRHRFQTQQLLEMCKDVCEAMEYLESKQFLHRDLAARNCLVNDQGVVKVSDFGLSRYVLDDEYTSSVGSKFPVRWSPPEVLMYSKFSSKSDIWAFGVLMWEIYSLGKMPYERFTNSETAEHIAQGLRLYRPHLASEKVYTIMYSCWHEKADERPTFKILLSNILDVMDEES

[2] = target: T1, Tyrosine-protein kinase BTK; assay: Cellular Assay: Alternatively, the present compounds might also be assessed for their capacity to inhibit Btk-dependent FcG receptor-induced IL-8 secretion in human cells. The human myeloid leukemia THP1 cell line (ATCC TIB202) was grown in RPMI 1640 medium supplemented with 10% FCS and 15 nM 1, 25-dihydroxy Vitamin D3 during 4 days before use to induced myeloid differentiation. A sufficient number of tissue-culture grade 384-well plates was coated with human IgG of unknown specificity by incubating overnight at 4° C. with 40 ul/well of a 50 ug/ml IgG solution in PBS. On the day of the experiment, plates were washed 5 times with 80 ul water on a Molecular Devices Aquamax DW4 plate washer. Solutions of the test compounds in 90% DMSO were added to each well on a Hamilton Microlab Star liquid handling station to 40 ul/well tissue culture medium and the total DMSO concentration was adjusted to 0.1%. Differentiated THP1 cells were then added in 40 ul/well to reach a final density of 5'000 cells/well in 80 ul culture medium. After 24 hours, IL-8 secretion was measured in the supernatant by the IL-8 HTRF assay following the protocol of the vendor (CisBio international).; type: cell-based, THP-1

Compound	IC50 [1]	IC50 [2]
Cc1c(NC(=O)c2ccc(C(C)(C)C)cc2)cc(F)cc1-c1ncnc2[nH]c(C3=CCC4(CC3)OCCO4)cc12	110 nM	
Cc1c(NC(=O)c2ccc(C(C)(C)C)cc2)cc(F)cc1-c1ncnc2[nH]c(C3=CCSCC3)cc12	23 nM	94 nM

These reach a lower IC50 [1]. Values come first.

IC50 [1]	IC50 [2]	Compound
3 nM		C=C(C)c1ccc(C(=O)Nc2cc(F)cc(-c3ncnc4[nH]c(C5=CCN(C(=O)N(C)C)CC5)cc34)c2C)cc1
13 nM		Cc1c(NC(=O)c2ccc(C(C)(C)O)cc2F)cc(F)cc1-c1ncnc2[nH]c(C3=CCN(C(=O)N(C)C)CC3)cc12
4 nM		Cc1c(NC(=O)c2ccc(C3CC3)cc2)cc(F)cc1-c1ncnc2[nH]c(C3=CCN(C(=O)CC#N)CC3)cc12
